Values of other authors as cited in PubChem BioAssay AID1259409 (Chemical Carcinogenesis Research Information System (CCRIS), 2018).

Tested on: rodent chemically induced tumor inhibition, incidence and multiplicity
Experiment: CCRIS tumor inhibitor studies
Settings: Dose [Inhibitor]: 0

Compound	tumour outcome (control, treated, inhibition, significance) (Carcinogen: ETHYL CARBAMATE, 51-79-6, 0.04 MG/G PER DOSE IN 0.01 ML OF 0.9% SALINE ADMINISTERED IN 4 DOSES AT 3 HR INTERVALS BEGINNING 30 MIN PRIOR TO CARC, Route [Inhibitor]: INTRAPERITONEAL, Species: MOUSE, Strain/Sex: B6C3F1/MALE, Target Tissue: Type of Lesion: LIVER: HEPATOMA, Dose [Carcinogen]: 0.125 MG/G ONCE, Promoter: NONE USED)	tumour outcome (control, treated, inhibition, significance) (Carcinogen: ETHYL CARBAMATE, 51-79-6, 0.04 MG/G PER DOSE IN 0.01 ML OF 0.9% SALINE ADMINISTERED IN 4 DOSES AT 3 HR INTERVALS BEGINNING 30 MIN PRIOR TO CARC, Route [Inhibitor]: INTRAPERITONEAL, Species: MOUSE, Strain/Sex: B6C3F1/MALE, Target Tissue: Type of Lesion: LIVER: HEPATOMA, Dose [Carcinogen]: 0.25 MG/G ONCE, Promoter: NONE USED)	tumour outcome (control, treated, inhibition, significance) (Carcinogen: ETHYL CARBAMATE, 51-79-6, 0.04 MG/G PER DOSE IN 0.01 ML OF 0.9% SALINE ADMINISTERED IN 4 DOSES AT 3 HR INTERVALS BEGINNING 30 MIN PRIOR TO CARC, Route [Inhibitor]: INTRAPERITONEAL, Species: MOUSE, Strain/Sex: B6C3F1/MALE, Target Tissue: Type of Lesion: LIVER: HEPATOMA, Dose [Carcinogen]: 0.5 MG/G ONCE, Promoter: NONE USED)	tumour outcome (control, treated, inhibition, significance) (Carcinogen: VINYL CARBAMATE, 15805-73-9, 0.04 MG/G PER DOSE IN 0.01 ML OF 0.9% SALINE ADMINISTERED IN 4 DOSES AT 3 HR INTERVALS BEGINNING 30 MIN PRIOR TO CARC, Route [Inhibitor]: INTRAPERITONEAL, Species: MOUSE, Strain/Sex: B6C3F1/MALE, Target Tissue: Type of Lesion: LIVER: HEPATOMA, Dose [Carcinogen]: 0.003 MG/G ONCE, Promoter: NONE USED)	tumour outcome (control, treated, inhibition, significance) (Carcinogen: VINYL CARBAMATE, 15805-73-9, 0.04 MG/G PER DOSE IN 0.01 ML OF 0.9% SALINE ADMINISTERED IN 4 DOSES AT 3 HR INTERVALS BEGINNING 30 MIN PRIOR TO CARC, Route [Inhibitor]: INTRAPERITONEAL, Species: MOUSE, Strain/Sex: B6C3F1/MALE, Target Tissue: Type of Lesion: LIVER: HEPATOMA, Dose [Carcinogen]: 0.008 MG/G ONCE, Promoter: NONE USED)	tumour outcome (control, treated, inhibition, significance) (Carcinogen: VINYL CARBAMATE, 15805-73-9, 0.04 MG/G PER DOSE IN 0.01 ML OF 0.9% SALINE ADMINISTERED IN 4 DOSES AT 3 HR INTERVALS BEGINNING 30 MIN PRIOR TO CARC, Route [Inhibitor]: INTRAPERITONEAL, Species: MOUSE, Strain/Sex: B6C3F1/MALE, Target Tissue: Type of Lesion: LIVER: HEPATOMA, Dose [Carcinogen]: 0.025 MG/G ONCE, Promoter: NONE USED)	tumour outcome (control, treated, inhibition, significance) (Carcinogen: 7,12-DIMETHYLBENZ[A]ANTHRACENE, 57-97-6, 45 NMOL IN 0.2 ML ACETONE APPLIED 5 MIN PRIOR TO CARCINOGEN (STUDY DURATION: 21 WK), Route [Inhibitor]: DERMAL, Species: MOUSE, Strain/Sex: SENCAR/FEMALE, Target Tissue: Type of Lesion: SKIN: PAPILLOMA, Dose [Carcinogen]: 10 NMOL IN 0.2 ML ACETONE ONCE, Promoter: 12-O-TETRADECANOYLPHORBOL-13-ACETATE, 16561-29-8)	tumour outcome (control, treated, inhibition, significance) (Carcinogen: 7,12-DIMETHYLBENZ[A]ANTHRACENE, 57-97-6, 450 NMOL IN 0.2 ML ACETONE APPLIED 5 MIN PRIOR TO CARCINOGEN (STUDY DURATION: 21 WK), Route [Inhibitor]: DERMAL, Species: MOUSE, Strain/Sex: SENCAR/FEMALE, Target Tissue: Type of Lesion: SKIN: PAPILLOMA, Dose [Carcinogen]: 10 NMOL IN 0.2 ML ACETONE ONCE, Promoter: 12-O-TETRADECANOYLPHORBOL-13-ACETATE, 16561-29-8)	tumour outcome (control, treated, inhibition, significance) (Carcinogen: 7,12-DIMETHYLBENZ[A]ANTHRACENE, 57-97-6, 4500 NMOL IN 0.2 ML ACETONE APPLIED 5 MIN PRIOR TO CARCINOGEN (STUDY DURATION: 21 WK), Route [Inhibitor]: DERMAL, Species: MOUSE, Strain/Sex: SENCAR/FEMALE, Target Tissue: Type of Lesion: SKIN: PAPILLOMA, Dose [Carcinogen]: 10 NMOL IN 0.2 ML ACETONE ONCE, Promoter: 12-O-TETRADECANOYLPHORBOL-13-ACETATE, 16561-29-8)	tumour outcome (control, treated, inhibition, significance) (Carcinogen: 7,14-DIMETHYLBENZO[A,H]ANTHRACENE, 35335-07-0, 45 NMOL IN 0.2 ML ACETONE APPLIED 5 MIN PRIOR TO CARCINOGEN (STUDY DURATION: 21 WK), Route [Inhibitor]: DERMAL, Species: MOUSE, Strain/Sex: SENCAR/FEMALE, Target Tissue: Type of Lesion: SKIN: PAPILLOMA, Dose [Carcinogen]: 47.5 NMOL IN 0.2 ML ACETONE ONCE, Promoter: 12-O-TETRADECANOYLPHORBOL-13-ACETATE, 16561-29-8)	tumour outcome (control, treated, inhibition, significance) (Carcinogen: 7,14-DIMETHYLBENZO[A,H]ANTHRACENE, 35335-07-0, 450 NMOL IN 0.2 ML ACETONE APPLIED 5 MIN PRIOR TO CARCINOGEN (STUDY DURATION: 21 WK), Route [Inhibitor]: DERMAL, Species: MOUSE, Strain/Sex: SENCAR/FEMALE, Target Tissue: Type of Lesion: SKIN: PAPILLOMA, Dose [Carcinogen]: 47.5 NMOL IN 0.2 ML ACETONE ONCE, Promoter: 12-O-TETRADECANOYLPHORBOL-13-ACETATE, 16561-29-8)	tumour outcome (control, treated, inhibition, significance) (Carcinogen: 7,14-DIMETHYLBENZO[A,H]ANTHRACENE, 35335-07-0, 4500 NMOL IN 0.2 ML ACETONE APPLIED 5 MIN PRIOR TO CARCINOGEN (STUDY DURATION: 21 WK), Route [Inhibitor]: DERMAL, Species: MOUSE, Strain/Sex: SENCAR/FEMALE, Target Tissue: Type of Lesion: SKIN: PAPILLOMA, Dose [Carcinogen]: 47.5 NMOL IN 0.2 ML ACETONE ONCE, Promoter: 12-O-TETRADECANOYLPHORBOL-13-ACETATE, 16561-29-8)	tumour outcome (control, treated, inhibition, significance) (Carcinogen: DIBENZO[A,H]ANTHRACENE, 53-70-3, 45 NMOL IN 0.2 ML ACETONE APPLIED 5 MIN PRIOR TO CARCINOGEN (STUDY DURATION: 21 WK), Route [Inhibitor]: DERMAL, Species: MOUSE, Strain/Sex: SENCAR/FEMALE, Target Tissue: Type of Lesion: SKIN: PAPILLOMA, Dose [Carcinogen]: 200 NMOL IN 0.2 ML ACETONE ONCE, Promoter: 12-O-TETRADECANOYLPHORBOL-13-ACETATE, 16561-29-8)	tumour outcome (control, treated, inhibition, significance) (Carcinogen: DIBENZO[A,H]ANTHRACENE, 53-70-3, 450 NMOL IN 0.2 ML ACETONE APPLIED 5 MIN PRIOR TO CARCINOGEN (STUDY DURATION: 21 WK), Route [Inhibitor]: DERMAL, Species: MOUSE, Strain/Sex: SENCAR/FEMALE, Target Tissue: Type of Lesion: SKIN: PAPILLOMA, Dose [Carcinogen]: 200 NMOL IN 0.2 ML ACETONE ONCE, Promoter: 12-O-TETRADECANOYLPHORBOL-13-ACETATE, 16561-29-8)	tumour outcome (control, treated, inhibition, significance) (Carcinogen: DIBENZO[A,H]ANTHRACENE, 53-70-3, 4500 NMOL IN 0.2 ML ACETONE APPLIED 5 MIN PRIOR TO CARCINOGEN (STUDY DURATION: 21 WK), Route [Inhibitor]: DERMAL, Species: MOUSE, Strain/Sex: SENCAR/FEMALE, Target Tissue: Type of Lesion: SKIN: PAPILLOMA, Dose [Carcinogen]: 200 NMOL IN 0.2 ML ACETONE ONCE, Promoter: 12-O-TETRADECANOYLPHORBOL-13-ACETATE, 16561-29-8)	tumour outcome (control, treated, inhibition, significance) (1000 PPM IN DIET BEGINNING 8 WK PRIOR TO CARCINOGEN AND CONTINUING FOR 6 WK POST CARCINOGEN (STUDY DURATION: 68 WK), Route [Inhibitor]: ORAL, Species: FISH, Strain/Sex: RAINBOW TROUT, Target Tissue: Type of Lesion: LIVER: HEPATOCELLULAR CARCINOMA, Dose [Carcinogen]: 20 PPB IN DIET FOR 2 WK, Promoter: NONE USED)
NCCOc1c(Cl)cc(Cl)cc1-c1ccccc1	21/21 (100%), 23/25 (92%), 8%, not calculated	25/25 (100%), 24/24 (100%), 0%, not calculated	22/22 (100%), 21/22 (95%), 5%, not calculated	21/24 (88%), 25/25 (100%), -14%, not calculated	26/26 (100%), 22/23 (96%), 4%, not calculated	23/23 (100%), 24/25 (96%), 4%, not calculated	–	–	–	–	–	–	–	–	–	–
O=c1cc(-c2ccccc2)oc2ccccc12	–	–	–	–	–	–	79%, 93%, -18%, not calculated	79%, 100%, -27%, not calculated	79%, 80%, -1%, not calculated	97%, 97%, 0%	97%, 97%, 0%	97%, 68%, 30%, not calculated	100%, 93%, 7%, not calculated	100%, 86%, 14%, not calculated	100%, 93%, 7%, not calculated	43/118 (36%), 45/120 (38%), -5%, not significant
